Results on one compound are retold here after ChEMBL document CHEMBL5154702, “Synthesis and biological evaluation of aminobenzamides containing purine moiety as class I histone deacetylases inhibitors” (Bioorg Med Chem, 2022).

The subject of one experiment is HepG2. The experiment in a line: cells. The class given is functional, cell-based. The settings on record: Homo sapiens, HepG2, 48 h.
Experiment [1] deals with T1, Histone deacetylase 1/2/3 (Homo sapiens) (UniProt Q13547+O15379+Q92769). The experiment in a line: Inhibition of HDAC1/HDAC2/HDAC3 in human HCT-116 cells assessed as increase in accumulation of acetylated H3K9 measured after 24 hrs by Western blot analysis. It counts as cell-based. The note with it: dose 0.1-10 µM, DDE = dose-dependent effect.
Experiment [2] has as its system HCT-116. The experiment in a line: Cell cycle arrest in human HCT-116 cells assessed as down regulation of Bcl-2 expression measured after 24 hrs by Western blot analysis. It counts as functional, cell-based. The settings on record: dose 0.1-10 µM, DDE = dose-dependent effect. On the technique in general: A western blot detects proteins with antibodies after separation by electrophoresis.

Experiment [3] has as its system HCT-116. The experiment in a line: Cell cycle arrest in human HCT-116 cells assessed as up regulation of p21 expression measured after 24 hrs by Western blot analysis. It counts as functional, cell-based. The note with it: dose 0.1-10 µM, DDE = dose-dependent effect.
In experiment [4] the test system is HCT-116. The experiment in a line: Cell cycle arrest in human HCT-116 cells assessed as accumulation of cells at G2/M phase at 0.1 uM measured after 24 hrs by propidium iodide staining based flow cytometry (reference value: 22.74%). The class given is functional.
The test system of another experiment is SGC-7901. The experiment in a line: Antiproliferative activity against human SGC-7901 cells measured after 48 hrs by MTT assay. It counts as functional, cell-based. The settings on record: SGC-7901, 48 h. On the technique in general: Tetrazolium dyes change colour on reduction, which living cells bring about.
Experiment [5] concerns HCT-116. The experiment in a line: Cell cycle arrest in human HCT-116 cells assessed as accumulation of cells at G0/G1 phase at 1 uM measured after 24 hrs by propidium iodide staining based flow cytometry (reference value: 58.05%). The class given is functional. Background: In flow cytometry, cells or beads pass a laser one at a time.
The target of experiment [6] is T1, Histone deacetylase 1/2/3 (Homo sapiens). The experiment in a line: Inhibition of HDAC1/HDAC2/HDAC3 in human HCT-116 cells assessed as increase in accumulation of acetylated H4K5 measured after 24 hrs by Western blot analysis. It counts as cell-based. The settings on record: dose 0.1-10 µM, DDE = dose-dependent effect.
In experiment [7] the test system is HCT-116. The experiment in a line: Induction of apoptosis in human HCT-116 cells assessed as early apoptotic cells at 1 uM measured after 24 hrs by Annexin V-FITC/propidium iodide staining based flow cytometry (reference value: 1.87%). The class given is functional.
In experiment [8] the test system is HCT-116. The experiment in a line: Cell cycle arrest in human HCT-116 cells assessed as accumulation of cells at G2/M phase at 0.5 uM measured after 24 hrs by propidium iodide staining based flow cytometry (reference value: 22.74%). It counts as functional.
Experiment [9] deals with HCT-116. The experiment in a line: Cell cycle arrest in human HCT-116 cells assessed as accumulation of cells at G0/G1 phase at 10 uM measured after 24 hrs by propidium iodide staining based flow cytometry (reference value: 58.05%). The class given is functional.
Experiment [10] concerns HCT-116. The experiment in a line: Induction of apoptosis in human HCT-116 cells assessed as late apoptotic cells at 0.5 uM measured after 24 hrs by Annexin V-FITC/propidium iodide staining based flow cytometry (reference value: 3.43%). The class given is functional.
In experiment [11] the test system is HCT-116. The experiment in a line: Induction of apoptosis in human HCT-116 cells assessed as viable cells at 0.5 uM measured after 24 hrs by Annexin V-FITC/propidium iodide staining based flow cytometry (reference value: 87.3%). The class given is functional. The note with it: read-out: Activity.
A further experiment deals with Histone deacetylase. It counts as cell-based, Homo sapiens. The settings on record: hela.
Experiment [12] deals with HCT-116. The experiment in a line: Cell cycle arrest in human HCT-116 cells assessed as down regulation of CDK2 expression measured after 24 hrs by Western blot analysis. The note with it: dose 0.1-10 µM, DDE = dose-dependent effect. The class given is functional, cell-based.
The next experiment relates to K562. The experiment in a line: cells. The class given is functional, cell-based. The note with it: Homo sapiens, K562, 48 h.

For orientation: IC50 means the concentration that inhibits the measured activity by half. Low values mean inhibition by little substance, high ones a need for much substance. As to `CCCCNc1nc(Cl)nc2c1ncn2Cc1ccc(C(=O)Nc2ccccc2N)cc1`, the half-inhibitory concentration (IC50) in the experiment on HepG2 was found to be 1290 nM; with SGC-7901, 1520 nM; at Histone deacetylase, 27.5 nM; with K562, 120 nM. Also, the inhibition result in [1] and in [6] was “Dde” throughout. Moreover, the Activity result in the experiment with HCT-116 [2] is “Dde”; in the experiment with HCT-116 [3] it was “Dde”; in the experiment on HCT-116 [4], 23.95%; in the experiment with HCT-116 [5] it was 66.71%; with HCT-116 [7], 49.4%; in the experiment on HCT-116 [8], 20.23%. The Activity with HCT-116 [9] is 73.05%; in the experiment with HCT-116 [10], 2.12%; in the experiment on HCT-116 [12], “Dde”. In addition, the viability at 0.5 µM with HCT-116 [11] worked out at 64.3%.
